Reference: patent US9523100B2, “Pesticidal compositions and related methods” (DOW AGROSCIENCES LLC, priority 2013, dated 2016)
Read-outs that look alike come from different tables or passages of the source.

Columns and labels:
[1] = tested on: Sweetpotato Whitefly-Crawler (WF) (Bemisia tabaci) (BEMITA); assay: Insecticidal test for Sweetpotato Whitefly-Crawler (WF) in foliar spray assay on cotton plants; type: in vivo; conditions: 216 h, 200 ppm foliar spray on cotton plants, graded after 9 days, Abbott corrected % control, read-out: WF 200 ppm, % Control (or Mortality) rating
Text: Insecticidal Test for Sweetpotato Whitefly-Crawler (WF) (Bemisia tabaci) (BEMITA) in Foliar Spray Assay
The sweetpotato whitefly (Bemisia tabaci) has been reported as a serious pest of cultivated crops world-wide. It has an extremely wide host range attacking more than 500 species of plants from 63 plant families. Weeds often serve as alternate hosts of crop pests. Direct feeding damage is caused by the piercing and sucking sap from the foliage of plants. This feeding causes weakening and early wilting of the plant and reduces the plant growth rate and yield Indirect damage results by the accumulation of honeydew produced by the whiteflies. Honeydew serves as a substrate for the growth of black sooty mold on leaves and fruit reducing photosynthesis and lessens the market value of the plant or yield. […] The sweetpotato whitefly is considered the most common and important whitefly vector of plant viruses worldwide.
Cotton plants (Gossypium hirsutum) grown in 3-inch pots, with 1 small (4-5 cm) true leaves, were used as test substrate. The plants were infested with 200-400 whitefly eggs 4-5 days prior to chemical application. Four pots with individual plants were used for each treatment. Test compounds (2 mg) were dissolved in 1 mL of acetone solvent, forming stock solutions of 2000 ppm test compound. The stock solutions were diluted 10× with 0.025% Tween 20 in water (diluents) to obtain the solution at 200 ppm test compound. A hand-held aspirator-type sprayer was used for spraying a solution to both sides of cotton leaves until runoff. Reference plants (solvent check) were sprayed with the diluent only containing 10% by volume of acetone solvent. Treated plants were held in a holding room for 9 days at approximately 25° C. and ambient relative humidity (RH) prior to grading. Evaluation was conducted by counting the number of live 3-4 nymph stage per plant under a microscope. Percent control was measured by using Abbott's correction formula (W. S. Abbott, “A Method of Computing the Effectiveness of an Insecticide” J. Econ. Entomol. 18 (1925), pp. 265-267) as follows.
Biological Data for Green Peach Aphid (GPA) (MYZUPE) and Sweetpotato Whitefly-Crawler (WF) (BEMITA)” (see table section). Corrected % Control=100*(X−Y)/X
X=No. of live nymphs on solvent check plants and
Y=No. of live nymphs on treated plants
(§1) The mortality efficiency of the pesticidal compounds against GPA and WF insects was determined after treatment.

[2] = tested on: Green Peach Aphid (GPA) (Myzus persicae) (MYZUPE); assay: Bioassay for Green Peach Aphid (GPA), foliar spray on cabbage seedlings; type: in vivo; conditions: 72 h, read-out: GPA 200 ppm, % Control (or Mortality) rating
Text: Bioassay for Green Peach Aphid (GPA) (Myzus persicae) (MYZUPE)
The green peach aphid (Myzus persicae) is the most significant aphid pest of peach trees, causing decreased growth, shriveling of the leaves, and the death of various tissues. It is also hazardous because it acts as a vector for the transport of plant viruses, such as potato virus Y and potato leafroll virus to members of the nightshade/potato family Solanaceae, and various mosaic viruses to many other food crops. GPA attacks such plants as broccoli, burdock, cabbage, carrot, cauliflower, daikon, eggplant, green beans, lettuce, macadamia, papaya, peppers, sweet potatoes, tomatoes, watercress, and zucchini, among other plants GPA also attacks many ornamental crops such as carnation, chrysanthemum, flowering white cabbage, poinsettia, and roses. GPA has developed resistance to many pesticides.
Cabbage seedlings grown in 3-inch pots, with 2-3 small (3-5 cm) true leaves, were used as test substrate. The seedlings were infested with 20-50 GPA (wingless adult and nymph stages) one day prior to chemical application. Four pots with individual seedlings were used for each treatment. Test compounds (2 mg) were dissolved in 2 mL of acetone/methanol (1:1) solvent, forming stock solutions of 1000 ppm test compound. The stock solutions were diluted 5× with 0.025% Tween 20 in water to obtain the solution at 200 ppm test compound. A hand-held aspirator-type sprayer was used for spraying a solution to both sides of […] leaves until runoff. Reference plants (solvent check) were sprayed with the diluent only containing 20% by volume of acetone/methanol (1:1) solvent. Treated plants were held in a holding room for three days at approximately 25° C. and ambient relative humidity (RH) prior to grading. Evaluation was conducted by counting the number of live aphids per plant under a microscope. Percent control was measured by using Abbott's correction formula (W. S. Abbott, “A Method of Computing the Effectiveness of an Insecticide” J. Econ. Entomol. 18 (1925), pp. 265-267) as follows. Corrected % Control=100*(X−Y)/X
X=No. of live aphids on solvent check plants and
Y=No. of live aphids on treated plants
Biological Data for Green Peach Aphid (GPA) (MYZUPE) and Sweetpotato Whitefly-Crawler (WF) (BEMITA)” (see table section).
as §1

[3] = 200 ppm foliar spray on cabbage seedlings, graded after three days, Abbott corrected % control

`CCN(C(=O)CCNC(=O)OC(C)(C)C)c1cn(-c2cccnc2)nc1Cl` [Compound F19, tert-Butyl (3-((3-chloro-1-(pyridin-3-yl)-1H-pyrazol-4-yl)(ethyl)amino)-3-oxopropyl)carbamate] gave a mortality at 200 ppm [1] of 80 to 100% and a mortality at 200 ppm [2, 3] of 80 to 100%.

For `CN(C(=O)CCC(=O)N1CCCCC1)c1cn(-c2cccnc2)nc1Cl` [Compound F33, N-(3-Chloro-1-(pyridin-3-yl)-1H-pyrazol-4-yl)-N-methyl-4-oxo-4-(piperidin-1-yl)butanamide], the mortality at 200 ppm [1] was 80 to 100% and the mortality at 200 ppm [2, 3] was 0 to 80%.

Molecule `CCN(C(=O)CCC=NOCCC1CC1(F)F)c1cn(-c2cccnc2)nc1Cl` (mixture of isomers) [FA61, (E/Z)-N-(3-Chloro-1-(pyridin-3-yl)-1H-pyrazol-4-yl)-4-((2-(2,2-difluorocyclopropyl)ethoxy)imino)-N-ethylbutanamide] has a mortality at 200 ppm [1] of 80 to 100% and a mortality at 200 ppm [2, 3] of 80 to 100%.

For `CCN(C(=O)CCC(=O)N(C)OC)c1cn(-c2cccnc2)nc1Cl` [Compound F78, N1-(3-Chloro-1-(pyridin-3-yl)-1H-pyrazol-4-yl)-N1-ethyl-N4-methoxy-N4-methylsuccinamide], the mortality at 200 ppm [1] was 80 to 100% and the mortality at 200 ppm [2, 3] was 80 to 100%.

Work on `CCN(C(=O)C(C)OC(C)=O)c1cn(-c2cccnc2)nc1Cl` (centres unmarked) [Compound C12, 1-((3-chloro-1-(pyridin-3-yl)-1H-pyrazol-4-yl)(ethyl)amino)-1-oxopropan-2-yl acetate] yielded a mortality at 200 ppm [1] of 80 to 100% and a mortality at 200 ppm [2, 3] of 80 to 100%.

`CCN(C(=O)CCn1ccc(C(C)=O)n1)c1cn(-c2cccnc2)nc1Cl` [FA68, 3-(3-Acetyl-1H-pyrazol-1-yl)-N-(3-chloro-1-(pyridin-3-yl)-1H-pyrazol-4-yl)-N-ethylpropanamide] gave a mortality at 200 ppm [1] of 80 to 100% and a mortality at 200 ppm [2, 3] of less than 0%.

`CCN(C(=O)CC1CN(C)C1=O)c1cn(-c2cccnc2)nc1Cl` (centres unmarked) [Compound F32, N-(3-chloro-1-(pyridin-3-yl)-1H-pyrazol-4-yl)-N-ethyl-2-(1-methyl-2-oxoazetidin-3-yl)acetamide] showed a mortality at 200 ppm [1] of 80 to 100% and a mortality at 200 ppm [2, 3] of 80 to 100%.

With `CCSC(=O)N(C)C(C)C(=O)N(CC)c1cn(-c2cccnc2)nc1Cl` (centres unmarked) [Compound F79, S-Ethyl (1-((3-chloro-1-(pyridin-3-yl)-1H-pyrazol-4-yl)(ethyl)amino)-1-oxopropan-2-yl)(methyl) carbamothioate] the mortality at 200 ppm [1] was 0 to 80% and the mortality at 200 ppm [2, 3] was 0 to 80%.

For `CCN(C(=O)CCN(CC(F)F)C(=O)C1CC1(F)F)c1cn(-c2cccnc2)nc1Cl` (centres unmarked) [Compound F34, N-(3-((3-chloro-1-(pyridin-3-yl)-1H-pyrazol-4-yl)(ethyl)amino)-3-oxopropyl)-N-(2,2-difluoroethyl)-2,2-difluorocyclopropanecarboxamide], the mortality at 200 ppm [1] was 80 to 100% and the mortality at 200 ppm [2, 3] was 0 to 80%.

In the case of `CCN(C(=O)CCn1ccc(/C(C)=N/OC(C)C)n1)c1cn(-c2cccnc2)nc1Cl` [FA2, (E/Z)-N-(3-Chloro-1-(pyridin-3-yl)-1H-pyrazol-4-yl)-N-ethyl-3-(3-(1-(isopropoxyimino)ethyl)-1H-pyrazol-1-yl)propanamide], the mortality at 200 ppm [1] is reported as 80 to 100% and the mortality at 200 ppm [2, 3] is reported as 0 to 80%.

`CCN(C(=O)CCN)c1cn(-c2cccnc2)nc1Cl` [Compound C2, 3-amino-N-(3-chloro-1-(pyridin-3-yl)-1H-pyrazol-4-yl)-N-ethylpropanamide] showed a mortality at 200 ppm [1] of 80 to 100% and a mortality at 200 ppm [2, 3] of 0 to 80%.

In the case of `CCN(C(=O)C(C)OC(=O)N(C)OC)c1cn(-c2cccnc2)nc1Cl` (centres unmarked) [Compound F16, 1-((3-Chloro-1-(pyridin-3-yl)-1H-pyrazol-4-yl)(ethyl)amino)-1-oxopropan-2-yl methoxy(methyl) carbamate], the mortality at 200 ppm [1] is reported as 80 to 100% and the mortality at 200 ppm [2, 3] is reported as 80 to 100%.

`CCN(C(=O)CNC(=O)CC(F)(F)F)c1cn(-c2cccnc2)nc1Cl` [Compound F57, N-(2-((3-Chloro-1-(pyridin-3-yl)-1H-pyrazol-4-yl)(ethyl)amino)-2-oxoethyl)-3,3,3-trifluoropropanamide] gave a mortality at 200 ppm [1] of 80 to 100% and a mortality at 200 ppm [2, 3] of 80 to 100%.

`CCN(C(=O)CCNCC(F)F)c1cn(-c2cccnc2)nc1Cl` [Compound C14, N-(3-chloro-1-(pyridin-3-yl)-1H-pyrazol-4-yl)-3-((2,2-difluoroethyl)amino)-N-ethylpropanamide] was tested, and the mortality at 200 ppm [1] was 80 to 100% and the mortality at 200 ppm [2, 3] was 80 to 100%.

In the case of `CCN(C(=O)CCN(CC(F)F)C(=O)C1(C)CC1(F)F)c1cn(-c2cccnc2)nc1Cl` (centres unmarked) [Compound F35, N-(3-((3-Chloro-1-(pyridin-3-yl)-1H-pyrazol-4-yl)(ethyl)amino)-3-oxopropyl)-N-(2,2-difluoroethyl)-2,2-difluoro-1-methylcyclopropane carboxamide], the mortality at 200 ppm [1] is reported as 80 to 100% and the mortality at 200 ppm [2, 3] is reported as 80 to 100%.

Work on `C=CCC(C)C(=O)N(CC)c1cn(-c2cccnc2)nc1Cl` (centres unmarked) [CA1, N-[3-Chloro-1-(3-pyridyl)pyrazol-4-yl]-N-ethyl-2-methyl-pent-4-enamide] yielded a mortality at 200 ppm [2, 3] of 80 to 100%.

For `CCN(C(=O)CC/C(C)=N/OCc1c(C)noc1C)c1cn(-c2cccnc2)nc1Cl` [FA25, (E/Z)-N-(3-Chloro-1-(pyridin-3-yl)-1H-pyrazol-4-yl)-4-(((3,5-dimethylisoxazol-4-yl)methoxy)imino)-N-ethylpentanamide], the mortality at 200 ppm [2, 3] was 0 to 80%.

`CCN(C(=O)CC/C(C)=N/OCC1CC(F)(F)C1)c1cn(-c2cccnc2)nc1Cl` [FA21, (E/Z)-N-(3-Chloro-1-(pyridin-3-yl)-1H-pyrazol-4-yl)-4-(((3,3-difluorocyclobutyl)methoxy)imino)-N-ethylpentanamide] gave a mortality at 200 ppm [2, 3] of 0 to 80%.

`CCN(C(=O)CC/C(C)=N/OCc1noc(C(C)(C)C)n1)c1cn(-c2cccnc2)nc1Cl` [FA23, (E/Z)-4-(((5-(tert-Butyl)-1,2,4-oxadiazol-3-yl)methoxy)imino)-N-(3-chloro-1-(pyridin-3-yl)-1H-pyrazol-4-yl)-N-ethylpentanamide] showed a mortality at 200 ppm [2, 3] of 0 to 80%.

For `CCN(C(=O)C(C)C/C(C)=N/OCCC1CC1(F)F)c1cn(-c2cccnc2)nc1Cl` (centres unmarked) [FA58, (E)-N-(3-Chloro-1-(pyridin-3-yl)-1H-pyrazol-4-yl)-4-((2-(2,2-difluorocyclopropyl)ethoxy)imino)-N-ethyl-2-methylpentanamide], the mortality at 200 ppm [2, 3] was 80 to 100%.

In the case of `CCN(C(=O)CC/C(C)=N/OCc1ncc(C(F)(F)F)cc1Cl)c1cn(-c2cccnc2)nc1Cl` [FA24, (E/Z)-N-(3-Chloro-1-(pyridin-3-yl)-1H-pyrazol-4-yl)-4-(((3-chloro-5-(trifluoromethyl)pyridin-2-yl)methoxy)imino)-N-ethylpentanamide], the mortality at 200 ppm [2, 3] is reported as 0 to 80%.

`CC(C)(C)[Si](C)(C)N1CC(CC(=O)O)C1=O` (centres unmarked) [Compound C3, 2-(1-(tert-butyldimethylsilyl)-2-oxoacetidin-3-yl)acetic acid] showed a mortality at 200 ppm ([2]; foliar) of 0 to 80%.

Molecule `CC(C)(C)[Si](C)(C)N1CC(CCC(=O)O)C1=O` (centres unmarked) [Compound C4, 3-(1-(tert-Butyldimethylsilyl)-2-oxoazetidin-3-yl)propanoic acid] has a mortality at 200 ppm ([2]; foliar) of 0 to 80%.
